Laboratory results published in publication PMC8347512, “Synthesis and Biological Assessment of 4,1-Benzothiazepines with Neuroprotective Activity on the Ca^2+ Overload for the Treatment of Neurodegenerative Diseases and Stroke” (Molecules, 2021).
Read-outs that look alike come from different tables or passages of the source.

Legend:
NMDA receptors = experiment: Blockade of NMDA-evoked cytosolic Ca2+ elevation (Fluo-4/AM) in rat cortical neurons; format: cell-based
Procedure: (§1) The neuroblastoma SH-SY5Y cell line was obtained from the American Type Culture Collection (ATCC-CRL-2266), maintained and cultured in a 1:1 mixture of MEM and F12 media with 10% of fetal bovine serum (FBS), according to procedures previously described. For fluorescence-based [Ca^2+]c measurements, SH-SY5Y cells were seeded in clear-bottomed, 96-well black plates at a density of 40,000 cells/well. For viability assays, SH-SY5Y cells were seeded in 48-well plates at a density of 70,000 cells/well following the procedure recently reported. Rat cortical embryonic neurons were prepared from 19-day-old embryos directly seeded in the plate well treated with poly-D-lysine in neurobasal medium (Gibco 21103, Madrid, Spain) supplemented with 1% of L-glutamine (Sigma, G6392), 0.5% of penicillin/streptomycin and 0.1% of gentamincine. In fluorescence-based [Ca^2+]c measurement, neurons were seed at clear-bottomed, 96-well black plates at a density of 30,000 cells/well. For viability assays, the rat cortical neurons were also seeded in 48-well plates at a density of 40,000 cells/well. All the biological assays were conducted under sterile conditions.
To assess the blocking effect of compounds on the VGCC, we used SH-SY5Y cells charged with the Ca^2+-sensitive fluorescent dye Fluo-4/AM at 10 μM in Krebs-HEPES buffer, following a protocol recently described. Compounds were incubated at the desired concentrations (1, 3, 10, and 30 μM). The Ca^2+ entry was favored by addition of K^+ 70 mM to the extracellular medium. […] Rat cortical neurons were charged with Fluo-4/AM at 3 μM in Krebs-HEPES buffer and compounds incubated at same concentrations than before. To stimulate Ca^2+ entry through the NMDA-sensitive glutamate receptors, NMDA was applied at 10 μM. In both cases, fluorescence oscillations as result of the [Ca^2+]c increases were real-time monitored in a multi-well fluorescence plate reader (FluoStar Optima, BMG, Germany), with excitation and emission wavelengths of 485 and 520 nm, respectively. Data were calculated as fluorescence increase (ΔF), according to the formula: ΔF=Fx−Fo /Fmax−Fmin where Fx is the maximum fluorescence obtained after Ca^2+ entry stimulation, F0 is the averaged fluorescence before, Fmax is the maximum fluorescence of the well obtained by treating cells with 5% Triton X-100, and the Fmin is the minimum fluorescence of well obtained by adding MnCl2 1 M to the previously Triton-lysed cells. The ΔF data were normalized respect to the control (ΔFc).

VGCC = experiment: Blockade of 70 mM K+-evoked cytosolic Ca2+ elevation (Fluo-4/AM) in SH-SY5Y cells; format: cell-based; details: for Decrease of K+-evoked Ca2+ signaling compared with nifedipine: compounds 10 μM, nifedipine 10 μM
Procedure: as §1
To assess the blocking effect of compounds on the VGCC, we used SH-SY5Y cells charged with the Ca^2+-sensitive fluorescent dye Fluo-4/AM at 10 μM in Krebs-HEPES buffer, following a protocol recently described. Compounds were incubated at the desired concentrations (1, 3, 10, and 30 μM). The Ca^2+ entry was favored by addition of K^+ 70 mM to the extracellular medium. To evaluate the blocking effect of compounds on NMDA receptors, we have followed a protocol recently reported by our research group. Rat cortical neurons were charged with Fluo-4/AM at 3 μM in Krebs-HEPES buffer and compounds incubated at same concentrations than before. To stimulate Ca^2+ entry through the NMDA-sensitive glutamate receptors, NMDA was applied at 10 μM. In both cases, fluorescence oscillations as result of the [Ca^2+]c increases were real-time monitored in a multi-well fluorescence plate reader (FluoStar Optima, BMG, Germany), with excitation and emission wavelengths of 485 and 520 nm, respectively. Data were calculated as fluorescence increase (ΔF), according to the formula: ΔF=Fx−Fo /Fmax−Fmin where Fx is the maximum fluorescence obtained after Ca^2+ entry stimulation, F0 is the averaged fluorescence before, Fmax is the maximum fluorescence of the well obtained by treating cells with 5% Triton X-100, and the Fmin is the minimum fluorescence of well obtained by adding MnCl2 1 M to the previously Triton-lysed cells. The ΔF data were normalized respect to the control (ΔFc). Data are presented as percentage of blockade (100% ΔF) at the concentration of 10 μM, or as IC50, i.e., the concentration of compound capable of halving the ΔFc (%ΔF = 50).

[1] = Blood-brain barrier permeation assay (PAMPA), porcine brain lipid; format: in vitro ADME; details: read-out: Pe, in vitro permeability (PAMPA-BBB)
Procedure: The parallel artificial membrane permeation assay (PAMPA) was used to predict the capacity of compounds to cross the blood–brain barrier (BBB) by passive diffusion, in a similar manner as previously described. Compounds were dissolved in 10 mM phosphate-buffered saline (PBS) buffer (pH 7.4) to the concentration of 100 µM. The filter membrane of the donor 96-well plate (Multiscreen IP sterile clear plate PDVF membrane, pore size […]) was impregnated with 4 µL of porcine brain lipid (PBL) (Avanti Polar Lipids, Inc., Alabaster, AL, USA) in dodecane (20 mg/mL), and after 5 min, 180 µL of each compound solution was added. The acceptor 96-well plate (Multiscreen, Millipore Corp. Burlington, MA, USA) was filled with 180 µL of PBS and 1% of DMSO. Finally, the donor filter plate was carefully put on the acceptor plate to form a “sandwich”, which was left undisturbed for 4 h at rt. After incubation, an UV plate reader determined the concentration of compounds in both acceptor and donor wells (150 µL/well) as the maximum absorption wavelength of each compound. Concentration of the compounds in the donor and acceptor well, and equilibrium concentration were calculated from the standard curve and expressed as the permeability (Pe), according to the following formula: logPe=logC×−ln1−drugacceptor/drugequilibrium whereC=Vdonor×Vaceptor/Vdonor+Vaceptor×Area×Time)
Results are expressed as mean ± SEM of three different experiments in duplicate.

rat cortical neurons [2] = experiment: Per se toxicity, MTT reduction, rat cortical neurons; format: cell-based; details: 48 h
Procedure: as §1
The per se toxicity of the new synthetized compounds was assessed in both cell cultures by the method of MTT reduction. After 24 h of seeding, SH-SY5Y cells were preincubated with compounds at different concentrations (1, 3, 10, and 30 μM) for 24 h. Afterwards, MEM/F12 medium was replaced by one fresh with 1% FBS with the compounds at the same concentration. The viability of cultures was measured 20 h later, following a procedure recently described. In the case of rat cortical neurons, 7 days after seeding, compounds were added to the wells to reach a final concentration of 1, 3, 10, and 30 μM. Forty-eight hours later, neuron viability was measure by the same procedure as the one described for SH-SY5Y cells.

SH-SY5Y cells = experiment: Neuroprotection against rotenone/oligomycin A (R/O), MTT, SH-SY5Y cells; format: cell-based; details: R/O 30/10 μM, compounds 10 μM
Procedure: as §1
(§2) The effect of compounds on the SH-SY5Y cells and rat cortical neurons viability compromised of different toxics was also evaluated by method of MTT reduction. Twenty-four hours after seeding, SH-SY5Y cells were preincubated with compounds at the concentration of 10 μM for 24 h. Afterwards, MEM/F12 medium was replaced by one fresh with 1% FBS, compounds at the same concentration, and rotenone/oligomycin A administered to media at the concentration of 30/10 μM, respectively. The cultures’ viability was measured 20 h later, following the MTT procedure recently described. As reference neuroprotective compound, melatonin 10 nM was selected. In the case of the rat cortical neurons, 7 days after seeding in 48-well plates, neurons were preincubated adding the compounds at a final concentration of 10 μM for 24 h. Then, toxic stimuli of 50 µM of glutamate was added to the wells. After 20 h, cell viability was measured by the MTT procedure. Here, the reference protective compound used was memantine (30 nM).

rat cortical neurons [3] = experiment: Neuroprotection against glutamate 50 μM, MTT, rat cortical neurons; format: cell-based; details: compounds 10 μM
Procedure: as §1, §2

[4] = compounds 1 to 30 μM, Fluo-4/AM, read-out: IC50, concentration halving the 70 mM K+-evoked Ca2+ elevation
[5] = rat cortical embryonic neurons, NMDA 10 μM, compounds 1 to 30 μM; read-out: IC50, NMDA-evoked [Ca2+]c elevation
[6] = porcine brain lipid, pH 7.4, 4 h, rt, Pe ≥ 4 indicates passive BBB crossing

Row | Compound | IC50 (VGCC; [4]) [µM] | IC50 (NMDA receptors; [5]) [µM] | melting point [°C] | Effect on cell viability of rat cortical neurons at 30 μM (rat cortical neurons [2]) | further results
1 | CC12CC3CC(C)(C1)CC(N)(C3)C2 [Memantine, memantine, reference compound] |  |  |  |  | IC50 (NMDA receptors; read-out: IC50, NMDA-evoked [Ca2+]c elevation; rat cortical embryonic neurons, NMDA 10 μM, compounds 1 to 30 μM): 17 µM
2 | COC(=O)C1=C(C)NC(C)=C(C(=O)OC)C1c1ccccc1[N+](=O)[O-] [Nifedipine, nifedipine, reference compound] | 15 |  |  |  | 
3 | O=C1CSC(c2ccc([N+](=O)[O-])cc2)c2cc(Cl)ccc2N1 (centres unmarked) [compound 14, 7-Chloro-5-(4′-nitrophenyl)-3,5-dihydro-4,1-benzothiazepin-2-(1H)-one] | 29.9 | > 30 | 289 to 291 |  | Papp at 4 h, 100 µM [1, 6]: < 4 ×10⁻⁶ cm/s
4 | O=C1CSC(c2ccncc2)c2cc(Cl)ccc2N1 (centres unmarked) [compound 15, 7-Chloro-5-(pyridin-4-yl)-3,5-dihydro-4,1-benzothiazepin-2-(1H)-one] | 20 | > 30 | 224 to 226 |  | 
5 | O=C1CSC(c2cccnc2)c2cc(Cl)ccc2N1 (centres unmarked) [compound 16, 7-Chloro-5-(pyridin-3-yl)-3,5-dihydro-4,1-benzothiazepin-2-(1H)-one] | > 30 | > 30 | 224 to 226 |  | 
6 | O=C1CSC(c2ccccn2)c2cc(Cl)ccc2N1 (centres unmarked) [compound 17, 7-Chloro-5-(pyridin-2-yl)-3,5-dihydro-4,1-benzothiazepin-2-(1H)-one] | 24.7 | > 30 | 215 to 217 |  | 
7 | O=C1CSC(c2ccncc2Cl)c2cc(Cl)ccc2N1 (centres unmarked) [compound 18, 7-Chloro-5-(3′-chloropyridin-4-yl)-3,5-dihydro-4,1-benzothiazepin-2-(1H)-one] | 11.5 | 28.3 | 226 to 229 | slightly reduced cell viability in a significant manner | Decrease of K+-evoked Ca2+ signaling compared with nifedipine (VGCC): in a similar manner or even better than the reference compound nifedipine; Papp at 4 h, 100 µM ([1]; pH 7.4, threshold value of 40 nm/s): > 4 ×10⁻⁶ cm/s
8 | CN(C)c1ccc2c(c1)C(c1ccccc1Cl)SCC(=O)N2 (centres unmarked) [compound 26, 5-(2′-Chlorophenyl)-7-dimethylamino-3,5-dihydro-4,1-benzothiazepin-2-(1H)-one] | 25.4 | > 30 | 178 to 181 | slightly reduced cell viability in a significant manner | Protection against R/O-induced oxidative stress (in words) (SH-SY5Y cells): clear trend to protect against oxidative stress; Papp at 4 h, 100 µM [1, 6]: < 4 ×10⁻⁶ cm/s
9 | COc1ccccc1C1SCC(=O)Nc2ccc(N(C)C)cc21 (centres unmarked) [compound 27, 7-Dimethylamino-5-(2′-methoxyphenyl)-3,5-dihydro-4,1-benzothiazepin-2-(1H)-one] |  | 18.5 | 233 to 236 | slightly reduced cell viability in a significant manner | IC50 (VGCC; read-out: IC50, concentration halving the 70 mM K+-evoked Ca2+ elevation, compounds 1 to 30 μM, Fluo-4/AM): 29.3 µM; Mitigation of the NMDA-elicited Ca2+ increase compared with memantine (NMDA receptors; rat cortical neurons, compounds 10 μM, memantine 10 μM): noticeable mitigation of the NMDA-elicited Ca^2+ increase, even higher than that exerted by the reference compound memantine; Protection against R/O-induced oxidative stress (in words) (SH-SY5Y cells): clear trend to protect against oxidative stress
10 | CN(C)c1ccc2c(c1)C(c1ccc(F)cc1)SCC(=O)N2 (centres unmarked) [compound 28, 7-Dimethylamino-5-(4′-fluorophenyl)-3,5-dihydro-4,1-benzothiazepin-2-(1H)-one] | 19.5 | > 30 | 219 to 222 | slightly reduced cell viability in a significant manner | Protection against R/O-induced oxidative stress (in words) (SH-SY5Y cells): clear trend to protect against oxidative stress
11 | O=C1CSC(c2ccc(F)cc2)c2ccccc2N1 (centres unmarked) [compound 32, 5-(4′-Fluorophenyl)-3,5-dihydro-4,1-benzothiazepin-2-(1H)-one] | 9.2 | > 30 | 251 to 254 |  | Decrease of K+-evoked Ca2+ signaling compared with nifedipine (VGCC): in a similar manner or even better than the reference compound nifedipine; Protection against glutamate-elicited neurotoxicity (in words) (rat cortical neurons [3]): statistically significant dissipation of the glutamate-elicited neurotoxicity; Papp at 4 h, 100 µM [1, 6]: < 4 ×10⁻⁶ cm/s
